Measurements from patent US20240116985A1, “STAPLED PEPTIDES AND METHODS THEREOF” (priority 2020, published 2024).
≈ marks a conversion by molar mass, not a printed value. Read-outs that look alike come from different tables or passages of the source.

Tests used:
[1] = target: T1, full-length beta-Catenin (Uniprot ID P35222) (Homo sapiens, UniProt P35222); test: Fluorescence polarization IC50 (beta-catenin / 5FAM-TCF4 10-53 competition); assay type: binding; conditions: read-out: beta-Catenin FP IC50
T1 construct: 10 nM full-length beta-Catenin (Uniprot ID P35222)
T1 sequence (P35222 1-781): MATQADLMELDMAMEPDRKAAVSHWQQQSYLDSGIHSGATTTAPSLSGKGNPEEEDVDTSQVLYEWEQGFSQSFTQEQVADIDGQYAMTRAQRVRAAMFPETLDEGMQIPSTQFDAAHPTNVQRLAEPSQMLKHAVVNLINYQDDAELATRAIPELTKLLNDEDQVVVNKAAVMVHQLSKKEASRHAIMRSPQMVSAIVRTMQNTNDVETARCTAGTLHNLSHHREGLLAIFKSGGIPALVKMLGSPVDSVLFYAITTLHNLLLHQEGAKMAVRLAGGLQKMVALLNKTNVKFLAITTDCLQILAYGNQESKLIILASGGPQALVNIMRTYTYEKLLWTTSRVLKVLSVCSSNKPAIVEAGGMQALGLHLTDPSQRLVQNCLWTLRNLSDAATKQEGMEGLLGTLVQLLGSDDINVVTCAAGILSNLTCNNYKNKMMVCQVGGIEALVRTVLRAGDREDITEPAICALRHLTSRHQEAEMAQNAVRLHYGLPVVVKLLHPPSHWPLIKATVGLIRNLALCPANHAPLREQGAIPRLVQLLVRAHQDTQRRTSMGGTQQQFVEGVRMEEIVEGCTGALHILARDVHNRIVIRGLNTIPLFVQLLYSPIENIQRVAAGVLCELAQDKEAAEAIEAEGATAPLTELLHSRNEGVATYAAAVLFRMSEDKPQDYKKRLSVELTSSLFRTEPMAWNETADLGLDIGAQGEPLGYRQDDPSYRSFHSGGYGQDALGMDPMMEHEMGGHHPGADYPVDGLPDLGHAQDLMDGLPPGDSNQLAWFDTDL

[2] = system: TCF/LEF luciferase Reporter in DLD1 cells; test: TCF reporter assay (DLD1 TCF/LEF luciferase reporter, Bright-Glo); assay type: cell-based; conditions: read-out: DLD1 4% Abs IC50; DLD1 reporter, 4%
Source text: Those skilled in the art will appreciate that other suitable reagents may be utilized and various parameters may be adjusted.
DLD1 reporter cell line was generated by using TCF/LEF luciferase Reporter Lentivirus (BPS Bioscience Catalog #79787). Parental DLD1 cells (ATCC@ CCL-221) were transfected with the lentivirus and followed by 3-day puromycin selection. Single clone was selected for Reporter assay.
On Day 1, cultured cells in flasks that are no more than about 60-70% confluent were washed with PBS and typsinized in 3 mL/T75 until cells were free floating. Spin down cells for 5 minutes at 1100RPM. While cells spin, determine the number of plates (3 compounds per plate) needed. After spinning, aspirate the supernatant gently and add 10 mL media (RPMI+4% FBS), and re-suspend and mix the cells gently. Count the cells twice in the cell counter Countess and take average of both the counts, and determine how many cells are needed. After plating cells at 5000 cells/well, seal with aerseal film. 90 uL cells/well. Incubate at 37° C. overnight, tap gently to mix and don't stack plates.
On Day 2, compounds were added. Stock solution was 10 mM. Make the DMSO containing media by adding 36 uL DMSO to 10 mL of media. Make the dilution wells by transferring 100 uL DMSO+Media into rows B-F of a protein LoBind 96-well plate. Row G is empty. Add any extra DMSO+media to row H. Transfer 4 uL of stock solution to Row A. One compound per column. Add 196 uL media to Row A, no DMSO in the media. Concentration of Row A was 200 uM. Mix well and do a 6 pt, 1:2 serial dilution, mix ×10 per transfer and change tips before each transfer. Removed excess volume from final well (row F) and discard. Transfer 10 uL of the compound containing media to cells with a multichannel according to plate maps. Add 60 uL DMSO containing media to the DMSO wells. The edge wells were typically not used in the assay and could be ignored if needed or replaced with PBS, but there typically were liquids in the wells. Cover plates with breathable plate sealer and incubate overnight.
A 96-well plate may be utilized to prepare dilution series for up to 12 compounds, each with several concentrations (e.g., 200, 100, 50, 25, 12.5, 6.25 and 0 uM; can be utilized as 100× depending on final test concentrations).
0 uM is the DMSO control for the whole plate. Edge well filled with 90 uL cells+10 uL DMSO containing media.
On Day 3, luciferase levels were assessed using Bright-Glo (Promega). Equilibrate Bright-Glo to room temperature before addition. 7 mL of mixed Bright-Gbo per plate. Unused Bright-Glo could be store at −80° C. Reconstituted reagent can be stored for up to 1 month at −80° C., or after one freeze-thaw. When ready to read, remove plates from incubator and let sit at room temperature for 15 minutes. Typically stagger taking out plates if reading multiple plates before adding the Bright-Glo. Add 90 uL/well Bright-Glo and shake gently for 3 minutes. Read luminescence on GloMax immediately using ‘BrightGlo’ programs.
Cellular activity was assessed using CTG. Equilibrate CTG reagents to room temperature. Equilibrate plates to room temp, e.g. 15 min. Use same time length for all plates. Add CTG reagent, 25 uL if using undiluted, or 90 uL if diluted 1 to 4. Shake for 2 min to induce cell lysis. Allow plate to incubate at RT for 10 min to stabilize lumine sent signal. Read luminesence using program ‘CellTiter-Glo’. Use Prism to find the Absolute IC50 (AbsIC50=X[50]) of each compound.

Solubility in PBS = assay type: physicochemical
Method in brief: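 Solubility is derived from HPLC peak areas: the ratio of the PBS supernatant peak to a 50 μM DMSO peptide peak, times 50 uM.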

[3] = target: T2, beta-catenin/TCF4 engagement (Homo sapiens, UniProt P35222); test: Nano-BRET target engagement assay (B-cat-Halo & TCF4-Luc in HEK293 cells); assay type: cell-based
T2 construct: expressed in transfected cells; host or cells: HEK293
T2 sequence (P35222 1-781): T1 sequence (P35222 1-781)

CHI Log D procedure = assay type: physicochemical; conditions: pH 7.4, CHI Log D
[4] = absolute IC50, read-out: NanoBRET Abs IC50

| SMILES | IC50 ([1]; fluorescence polarization) [nM] | IC50 [2] [nM] | Solubility (Solubility in PBS; Solubility (uM)) [µM] | IC50 [1] [nM] | IC50 ([3]; read-out: NanoBRET Abs IC50) [nM] | chromatographic logD (CHI Log D procedure) | IC50 [3, 4] [nM] | inhibition at 10 µM ([3]; HEK293, 10 uM, read-out: NanoBRET % inh @ 10 uM) [%] | Solubility (Solubility in PBS) [µM] | IC50 ([3]; read-out: NanoBRET IC50) [nM] |
| --- | --- | --- | --- | --- | --- | --- | --- | --- | --- | --- |
| CC(C)C[C@H](NC(=O)[C@]12CCN(C1)C(=O)OCCCCCCCCC1(CCCCCCc3ccccc3C(=O)N3CCC[C@@]3(C)C(=O)N[C@@H](CC(=O)O)C(=O)N1)C(=O)N[C@@H](C)C(=O)N[C@@H](CC(=O)O)C(=O)N[C@@H](Cc1cccc(C(=O)O)c1)C(=O)N[C@@H](C)C(=O)N[C@@H](C)C(=O)N[C@@H](Cc1ccccc1)C(=O)N2)C(=O)N[C@@H](Cc1ccsc1)C(=O)N[C@@H](Cc1csc2ccccc12)C(=O)N[C@@H](CCC(N)=O)C(N)=O (stereo partly drawn) [I-2607, BzAm2Allyl-MePro-Asp-B5-Ala-Asp-3COOHF-Ala-Ala-Phe-PyrS2-Leu-3Thi-BztA-Gln-NH2] | 904 | > 20000 | – | – | – | – | – | – | – | – |
| COc1ccccc1C[C@H](NC(=O)[C@]1(C)CCCCCCC=CCCCC2(CCCC=CC[C@]3(CCCN3C(C)=O)C(=O)N[C@@H](CC(=O)O)C(=O)N[C@@H](C)C(=O)N2)C(=O)N[C@@H](CC(=O)O)C(=O)N[C@@H](CCC(=O)O)C(=O)N[C@@H](C)C(=O)N[C@@H](C)C(=O)N[C@@H](Cc2ccccc2)C(=O)N[C@@H](CC(N)=O)C(=O)N1)C(=O)N[C@@H](Cc1csc2ccccc12)C(=O)N[C@@H](CCC(N)=O)C(N)=O (stereo partly drawn) [I-437, Ac-PL3-Asp-Ala-B5-Asp-Glu-Ala-Ala-Phe-Asn-S8-2OMeF-BztA-Gln-NH2] | 26 | – | 44 (≈ 81.7 µg/mL) | – | – | 2 | 17500 | – | – | – |
| CC(=O)N1CCC[C@]12CC=CCCCC1(CCCC=CCCCOC(=O)N3CC[C@@](C(=O)N[C@@H](Cc4ccccc4)C(=O)N[C@@H](Cc4csc5ccccc45)C(=O)N[C@@H](CCC(N)=O)C(N)=O)(C3)NC(=O)[C@H](CC(N)=O)NC(=O)[C@H](Cc3ccccc3)NC(=O)[C@H](C)NC(=O)[C@H](C)NC(=O)[C@H](CCC(=O)O)NC(=O)[C@H](CC(=O)O)NC1=O)NC(=O)[C@H](C)NC(=O)[C@H](CC(=O)O)NC2=O (stereo partly drawn) [I-462, Ac-PL3-Asp-Ala-B5-Asp-Glu-Ala-Ala-Phe-Asn-PyrS2-Phe-BztA-Gln-NH2] | 28 | – | 49 (≈ 91.6 µg/mL) | – | – | 1.76 | > 20000 | – | – | – |
| CC(=O)N1CCC[C@]12CC=CCCCC1(CCCC=CCCCOC(=O)N3CC[C@@](C(=O)N[C@@H](Cc4ccccc4Cl)C(=O)N[C@@H](Cc4csc5ccccc45)C(=O)N[C@@H](CCC(N)=O)C(N)=O)(C3)NC(=O)[C@H](CC(C)C)NC(=O)[C@H](Cc3ccccc3)NC(=O)[C@H](C)NC(=O)[C@H](C)NC(=O)[C@H](CC(=O)O)NC(=O)[C@H](CC(=O)O)NC1=O)NC(=O)[C@H](Cc1ccc3ccccc3c1)NC(=O)[C@H](CC(=O)O)NC2=O (stereo partly drawn) [I-1111, Ac-PL3-Asp-2NapA-B5-Asp-Asp-Ala-Ala-Phe-Leu-PyrS2-2C1F-BztA-Gln-NH2] | – | – | – | 28 | > 20000 | 2.36 | – | – | 10 (≈ 20.2 µg/mL) | – |
| CC(=O)N1CCC[C@]12CC=CCCCC1(CCCC=CCCCOC(=O)N3CC[C@@](C(=O)N[C@@H](Cc4ccsc4)C(=O)N[C@@H](Cc4csc5ccccc45)C(=O)N[C@@H](CCC(N)=O)C(=O)N[C@@H](CCCCNC(=O)c4ccc(CN5CCOCC5)cc4)C(N)=O)(C3)NC(=O)[C@H](CC(N)=O)NC(=O)[C@H](Cc3ccccc3)NC(=O)[C@H](C)NC(=O)[C@H](C)NC(=O)[C@H](CC(=O)O)NC(=O)[C@H](CC(=O)O)NC1=O)NC(=O)[C@H](CC(C)(C)C)NC(=O)[C@H](CC(=O)O)NC2=O (stereo partly drawn) [I-909, Ac-PL3-Asp-Npg-B5-Asp-Asp-Ala-Ala-Phe-Asn-PyrS2-3Thi-BztA-Gln-[MeMorphBz]Lys-NH2] | – | – | 44 (≈ 99 µg/mL) | 8 | 28400 | 1.93 | – | – | – | – |

Further lines, results first:

| IC50 ([1]; fluorescence polarization) [nM] | IC50 [2] [nM] | Solubility (Solubility in PBS; Solubility (uM)) [µM] | IC50 [1] [nM] | IC50 ([3]; read-out: NanoBRET Abs IC50) [nM] | chromatographic logD (CHI Log D procedure) | IC50 [3, 4] [nM] | inhibition at 10 µM ([3]; HEK293, 10 uM, read-out: NanoBRET % inh @ 10 uM) [%] | Solubility (Solubility in PBS) [µM] | IC50 ([3]; read-out: NanoBRET IC50) [nM] | SMILES |
| --- | --- | --- | --- | --- | --- | --- | --- | --- | --- | --- |
| – | – | 38 (≈ 73.5 µg/mL) | 6 | 12200 | 2.21 | – | – | – | – | CC(=O)N1CCC[C@]12CC=CCCCC1(CCCC=CCCCOC(=O)N3CC[C@@](C(=O)N[C@@H](Cc4ccccc4C)C(=O)N[C@@H](Cc4csc5ccccc45)C(=O)N[C@@H](Cc4c[nH]cn4)C(N)=O)(C3)NC(=O)[C@H](CC(N)=O)NC(=O)[C@H](Cc3ccccc3)NC(=O)[C@H](C)NC(=O)[C@H](C)NC(=O)[C@H](CC(=O)O)NC(=O)[C@H](CC(=O)O)NC1=O)NC(=O)[C@H](CC(C)(C)C)NC(=O)[C@H](CC(=O)O)NC2=O (stereo partly drawn) [I-782, Ac-PL3-Asp-Npg-B5-Asp-Asp-Ala-Ala-Phe-Asn-PyrS2-2MeF-BztA-His-NH2] |
| – | – | 38 (≈ 75.9 µg/mL) | 6 | 18200 | 2.1 | – | 30.8 | – | – | CC(=O)N1CCC[C@]12CC=CCCCC1(CCCC=CCCCOC(=O)N3CC[C@@](C(=O)N[C@@H](Cc4ccsc4)C(=O)N[C@@H](Cc4csc5ccccc45)C(=O)N[C@@H](Cc4c[nH]cn4)C(=O)N[C@@H](C)C(N)=O)(C3)NC(=O)[C@H](CC(N)=O)NC(=O)[C@H](Cc3ccccc3)NC(=O)[C@H](C)NC(=O)[C@H](C)NC(=O)[C@H](CC(=O)O)NC(=O)[C@H](CC(=O)O)NC1=O)NC(=O)[C@H](CC(C)(C)C)NC(=O)[C@H](CC(=O)O)NC2=O (stereo partly drawn) [I-820, Ac-PL3-Asp-Npg-B5-Asp-Asp-Ala-Ala-Phe-Asn-PyrS2-3Thi-BztA-His-Ala-NH2] |
| – | – | – | 12 | 40000 | 2.62 | – | – | 10 (≈ 19.4 µg/mL) | 29100 | CC(=O)N1CCC[C@]12CC=CCCCC1(CCCC=CCCCOC(=O)N3CC[C@@](C(=O)N[C@@H](Cc4ccsc4)C(=O)N[C@@H](Cc4csc5ccccc45)C(=O)N[C@@H](CCC(N)=O)C(N)=O)(C3)NC(=O)[C@H](CC(N)=O)NC(=O)[C@H](Cc3ccccc3)NC(=O)[C@H](C)NC(=O)[C@H](C)NC(=O)[C@H](Cc3c[nH]cn3)NC(=O)[C@H](CC(=O)O)NC1=O)NC(=O)[C@H](CC(C)(C)C)NC(=O)[C@H](CC(=O)O)NC2=O (stereo partly drawn) [I-864, Ac-PL3-Asp-Npg-B5-Asp-His-Ala-Ala-Phe-Asn-PyrS2-3Thi-BztA-Gln-NH2] |
